Values joined by “and” are separate entries in the source; they are usually repeats but may differ in a detail not shown here. Equal values may be shown once.
Assays:
SphK1 R24A = biological target: T1, SphK1 R24A (Homo sapiens, UniProt Q9NYA1, R24A); experiment: filter binding assay of [3H] acetyl-CoA to SphK1
T1 construct: His (N); made in house
Excerpt: (§1) Single point mutations in SphK1 (R56A, R57A, R24A, R185A, D178A, and F192A) and COX2 (S565A, N181A, T564A, and S567A) were generated using the In-Fusion Cloning Kits (Clontech) and ORF cDNA expression plasmids of human SphK1 and COX2 gene (Sino Biological Inc, HG15679-NH and HG12036-NH), according to the manufacturer’s instructions. The forward and reverse primers described in Supplementary Table 4. The SphK1 WT, SphK1 mutants, COX2 WT, and COX2 mutant plasmids were transformed in the One shot TOP 10 competent cell (Invitrogen). The bacteria were grown in Luria-Bertani (LB, Invitrogen) plates supplemented with 50 μg ml^−1 kanamycin (Sigma-Aldrich) at 37 °C. The bacterial cell pellets were resuspended in lysis buffer containing 20 mM sodium phosphate (GE Healthcare), 500 mM NaCl (GE Healthcare), 20 mM imidazole (pH 7.4) (GE Healthcare), 0.2 mg ml^−1 lysozyme (Sigma-Aldrich), 20 μg ml^−1 DNase I (Roche), 1 mM MgCl2 (Sigma-Aldrich), and 1 mM PMSF (Sigma-Aldrich) before being lysed by sonication and clarified by centrifugation at 15,493×g for 10 min. Proteins were purified from the soluble fraction using His-Spin Trap columns (GE Healthcare) and the binding and acetylation assays were performed.
(§2) Briefly, SphK1 WT and mutant enzymes (1 mU) were resuspended in 100 μl reaction buffer (20 mM HEPES; pH 7.4, 50 mM NaCl, 10 mM MgCl2, 1 mM EGTA, 0.02% Triton-X100, and 100 μM sphingosine, all from Sigma-Aldrich). […] Briefly, COX2 WT and mutant enzymes (1 mU) were resuspended in 100 μl reaction buffer (20 mM HEPES; pH 7.4, 50 mM NaCl, 10 mM MgCl2, 1 mM EGTA, and 0.02% Triton-X100, all from Sigma-Aldrich). Reactions were initiated by adding [^14C] N-AS (1–200 μM (0.1–20 μCi), ARC UK Ltd, ARC-1024) and incubated at 37 °C for 1 h. The reactions were terminated by adding 100 μl of ice-cold reaction buffer containing 5 mM cold N-AS and immediately filtered through P30 filtermat (Perkin-Elmer), followed by five washes.
(§3) The binding velocity was plotted and the Kcat and KM values were calculated from the Michaelis-Menten analysis using the Sigma-plot program (ver 10.0, Systat software Inc.).

SphK1 R185A = biological target: T2, SphK1 R185A (Homo sapiens, UniProt Q9NYA1, R185A); experiment: filter binding assay of [3H] acetyl-CoA to SphK1
T2 construct: His (N); made in house
T2 sequence (Q9NYA1 whole entry R185A): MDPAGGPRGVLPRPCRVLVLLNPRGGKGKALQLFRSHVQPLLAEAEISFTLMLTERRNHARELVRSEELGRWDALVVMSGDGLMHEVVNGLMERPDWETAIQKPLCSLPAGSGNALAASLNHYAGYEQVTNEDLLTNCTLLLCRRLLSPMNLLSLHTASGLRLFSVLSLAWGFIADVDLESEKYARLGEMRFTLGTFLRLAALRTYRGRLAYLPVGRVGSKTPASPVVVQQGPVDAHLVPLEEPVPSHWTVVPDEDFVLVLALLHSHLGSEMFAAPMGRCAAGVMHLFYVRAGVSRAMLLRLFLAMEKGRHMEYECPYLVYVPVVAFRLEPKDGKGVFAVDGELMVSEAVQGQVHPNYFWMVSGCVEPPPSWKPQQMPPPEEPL
Excerpt: as §1, §2, §3

SphK1 R56A = biological target: T3, SphK1 R56A (Homo sapiens, UniProt Q9NYA1, R56A); experiment: filter binding assay of [3H] acetyl-CoA to SphK1
T3 construct: His (N); made in house
T3 sequence (Q9NYA1 whole entry R56A): as the sequence (Q9NYA1 whole entry R185A) above, with R56A, A185R counted along it
Excerpt: as §1, §2, §3

SphK1 R57A = biological target: T4, SphK1 R57A (Homo sapiens, UniProt Q9NYA1, R57A); experiment: filter binding assay of [3H] acetyl-CoA to SphK1
T4 construct: His (N); made in house
T4 sequence (Q9NYA1 whole entry R57A): as the sequence (Q9NYA1 whole entry R185A) above, with R57A, A185R counted along it
Excerpt: as §1, §2, §3

APP/PS1 mice = experiment: fluorescent bead phagocytosis assay in live brain slices (Fig 5b); type: in vivo, mouse; details: APP/PS1 + N-AS, individual values
Experimental: Transgenic mouse lines over-expressing the hAPP695swe (APP) and presenilin-1M146V (PS1) mutations were originated from GlaxoSmithKline (Harlow, UK)[32] and maintained as described previously. We purchased 5×FAD mice from Jackson Labs (Stock number. 34840-JAX). Because APP/PS1 and 5xFAD mice show sex differences in disease progression, we used only male mice. To examine possible therapeutic effect of N-AS and aspirin in APP/PS1 mice, the N-AS (30 mg kg^−1, Sigma-Aldrich, 01912) was injected daily s.c. for 8 weeks to 7-months-old APP/PS1 mice until the age of 9 months, and aspirin (2 mg kg^−1, Sigma-Aldrich, A5376)[33] was administrated orally to 7-months-old APP/PS1 mice for 8 weeks. Also, to confirm possible therapeutic efficacy of N-AS in 5×FAD, the N-AS (30 mg kg^−1, Sigma-Aldrich, 01912) was injected daily s.c. for 4 weeks to 3-months-old 5×FAD mice until the age of 4 months. Block randomization method was used to allocate the animals to experimental groups. To eliminate the bias, we were blinded in experimental progress such as data collection and data analysis. […]
The phagocytic activity of adult microglia in the cortex of live brain slices was analyzed as following protocol. […] The sections were analyzed with a laser-scanning confocal microscope (FV3000; Olympus). MetaMorph software (Molecular Devices) was used to quantification.

[1] = read-out: KM of acetyl-CoA binding to SphK1

T1 sequence (Q9NYA1 whole entry R24A): as the sequence (Q9NYA1 whole entry R185A) above, with R24A, A185R counted along it

## CC(=O)SCCNC(=O)CCNC(=O)[C@H](O)C(C)(C)COP(=O)(O)OP(=O)(O)OC[C@H]1O[C@@H](n2cnc3c(N)ncnc32)[C@H](O)[C@@H]1OP(=O)(O)O [Acetyl-CoA, acetyl-CoA]
SphK1 R24A
  Kcat of acetyl-CoA binding to SphK1: 0.000273 s⁻¹
SphK1 R24A; [1]
  Km: 14.4 µM
SphK1 R185A
  Kcat of acetyl-CoA binding to SphK1: 0.000237 s⁻¹
SphK1 R185A; [1]
  Km: 22.8 µM
SphK1 R56A
  Kcat of acetyl-CoA binding to SphK1: 0.000203 s⁻¹
SphK1 R56A; [1]
  Km: 40.4 µM
SphK1 R57A
  Kcat of acetyl-CoA binding to SphK1: 0.000305 s⁻¹
SphK1 R57A; [1]
  Km: 15.4 µM

## CCCCCCCCCCCCC/C=C/[C@@H](O)[C@H](CO)NC(C)=O [N-AS, N-((2S,3R,E)-1,3-Dihydroxyoctadec-4-en-2-yl)acetamide]
APP/PS1 mice
  number of microglial phagocytes normalized to the total number of microglia: 0.002363 and 0.002382 and 0.001493 and 0.001786 and 0.001435
